The values below come from patent EP0346694A1, “Substituted 3-Aminosydnone imines, process for their preparation and their use” (CASSELLA Aktiengesellschaft, priority 1988, dated 1989).

The assay relates to Spiralstreifen der Arteria pulmonalis des Meerschweinchens. Kind of assay: Relaxation of potassium-depolarised, CaCl₂-contracted spiral strips of guinea pig pulmonary artery (modified method of Godfraind and Kaba / Schüman et al). The class given is cell-based, Meerschweinchen. Particulars: Cavia porcellus; concentration inhibiting the contraction by 50 %; strips depolarised with 40 mmol/l Kalium in calcium-free Tyrode solution, contraction by 0,5 mmol/l CaCl₂; cumulative addition; mean of 4 to 6 strips; read-out: IC₅₀ (converted). From the text: Die pharmakologische Wirkung der verbindungen der Formel I wurde nach einer modifizierten Methode von Godfraind and Kaba (Arch.Int. Pharmacodyn. Ther. 196, (Suppl) 35 bis 49, 1972) und von Schüman et al (Naunyn-Schmiedeberg's Arch. Pharmacol. 289, 409 bis 418, 1975) ermittelt. Dabei werden Spiralstreifen der Arteria pulmonalis des Meerschweinchens nach Äquilibrierung in calciumfreier Tyrodelösung mit 40 mmol/l Kalium depolarisiert. Ein Zusatz von 0,5 mmol/l CaCl₂ löst dann eine Kontraktion aus. Die relaxierende Wirkung der Prüfsubstanz wird durch kumulative Zugabe in 1/2 log 10 abgestuften Konzentrationen ermittelt. Aus der Konzentrationswirkungskurve (Abszisse: -log mol/l Prüfsubstanz, Ordinate: % Hemmung der maximalen Kontraktion, Mittelwert von 4 bis 6 Gefäß-streifen) wird die Konzentration der Prüfsubstanz ermittelt, welche die Kontraktion um 50 % hemmt (= IC₅₀, mol/l). In der folgenden Tabelle sind die so erhaltenen IC₅₀-Werte angegeben. Wie der Vergleich mit dem IC₅₀-Wert 3·10⁻⁴ für die bekannte Verbindung Molsidomin (N-Ethoxycarbonyl-3-morpholino-sydnonimin), vgl. DE-B-16 95 897, ergibt, liegen die Werte für die Verbindungen der Formel I erheblich günstiger.

Counter-ions that a name gives are not always drawn.

Regarding `CC1(C)COCCN1[n+]1cc([NH-])on1` [a, 3-(3.3-Dimethylmorpholin-4-yl)-sydnonimin-hydrochlorid], the IC50 was 1000 nM.
In the case of `CC1(C)CCCCN1[n+]1cc([NH-])on1` [b, 3-(2.2-Dimethylpiperidin-1-yl)-sydnonimin-hydrochlorid] it was 1000 nM; in that of `CCOC(=O)[N-]c1c[n+](N2CCOCC2)no1` [d, N-Ethoxycarbonyl-3-morpholino-sydnonimin, reference compound], 300000 nM.
The result for `CC(C)N1CCN([n+]2cc([NH-])on2)C(C)(C)C1` [c, 3-(4-Isopropyl-2.2-dimethyl-piperazin-1-yl)-sydnonimin-dihydrochlorid] reads 1000 nM.
